Source: US20080027088A1, “Imidazole-Based Hmg-Coa Reductase Inhibitors” (Warner-Lambert Company, LLC, priority 2004, published 2008)

Tests used:
Format in all cases: in vivo
[1] = test system: ApoE KO mice fed a Western diet; experiment: Lipid deposition in en face aorta, Oil Red O staining, 12 weeks
Description: Vascular pathology—For quantitative analysis of atherosclerotic lesion coverage, sacrificed mice were perfused with saline and the aorta was isolated from the heart to the iliac bifurcation by severing minor branching arteries and dissecting the adventitia. After 24 hrs of fixation with 10% buffered formalin, aorta was opened longitudinally and pinned down on the black wax. Lipids were stained with Oil Red O and photographs were taken. The percentage of aorta stained with Oil Red O was determined by image analysis software, Image Pro Plus.
FIG. 10. Lipid deposition in aortae of Western-diet fed ApoE KO mice. ApoE KO mice were fed with Western diet in the presence or absence of myriocin for 12 weeks. Mice were sacrificed and fixed with 10% buffered formalin for 24 hours. The aorta from heart to the iliac bifurcation was dissected, opened along the ventral surface and pinned down on a black wax background. Accumulated lipids were visualized by Oil Red O staining. Areas of the atherosclerotic lesion were quantified by using Image Pro Plus and represented as percentage of lesion area to total aorta area. The values reported are mean±SEM (n=4, WD vs. WD+myriocin or normal chow, *P<0.01; Normal vs. WD+myriocin, #P<0.01). Bar represents 1 cm.

[2] = test system: ApoE KO mice fed a Western diet; experiment: Atherosclerotic lesion and macrophage area in aortic root and brachiocephalic artery, 12 weeks
Description: For histological analysis, the mice were perfused and fixed in Zinc-Tris fixative. Paraffin embedded sections were stained with Masson's Trichrome. Intimal macrophages were immunohistochemically stained using MAC-2 antibody (clone M3/38 from Cedarlane Laboratories Limited) counterstained with Verhoeff elastic stain. T-lymphocytes were immunohistochemically stained with rat CD3 antibody (clone CD3-12, Serotec). Lesion thickness and area occupied by macrophages were determined using Image Pro Plus software.
FIGS. 11 & 12. Formation of atherosclerotic lesions in aortic root and brachiocephalic artery. ApoE KO mice fed with Western-diet in the absence or presence of myriocin, ApoE KO mice and C57BI/6J mice fed with normal chow were sacrificed and fixed with Zinc-Tris. The cross-section of brachiocephalic artery was stained by Masson's Trichrome and MAC-2 antibody counterstained with Verhoeff elastic stain. Atherosclerotic lesion (black bars) and macrophage size (gray bars) in brachiocephalic artery and in aortic root were quantified by using Image Pro Plus. The values reported are mean±SEM (n=5, *P<0.01, WD vs WD plus myriocin; #P<0.01, normal vs WD plus myriocin). Bar represents 100 μm.

[3] = test system: ApoE KO mice fed a Western diet; experiment: Incorporation of T lymphocytes into lesion of aortic root; settings: 12 weeks
Description: For histological analysis, the mice were perfused and fixed in Zinc-Tris fixative. Paraffin embedded sections were stained with Masson's Trichrome. Intimal macrophages were immunohistochemically stained using MAC-2 antibody (clone M3/38 from Cedarlane Laboratories Limited) counterstained with Verhoeff elastic stain. T-lymphocytes were immunohistochemically stained with rat CD3 antibody (clone CD3-12, Serotec). Lesion thickness and area occupied by macrophages were determined using Image Pro Plus software. FIG. 14. Incorporation of T lymphocytes into lesion of aortic root. Cross section of aortic root was stained by rat CD3 antibody and developed by diaminobenzidine (brown color) to detect incorporated T lymphocytes. Sections were counterstained with Harris hematoxylin (blue). T-lymphocyte incorporation was quantified by measuring number of intimal T lymphocytes in aortic root (FIG. 14). Values are mean±SEM (n=5; *P<0.05, Western diet vs standard chow; #P<0.05, Western diet plus myriocin vs standard chow). Bar represents 50 μm.

Structure (SMILES): CCCCCCC(=O)CCCCCC/C=C/C[C@@H](O)[C@H](O)[C@@](N)(CO)C(=O)O [myriocin]
- atherosclerotic lesion decreased, en face aorta (Oil Red O) ([1]; compared with normal chow-fed ApoE KO mice): 75%
- atherosclerotic lesion coverage reduced, en face aorta (Oil Red O) ([1]; vs Western diet-fed ApoE KO mice): 93%
- decrease in lesion area, brachiocephalic artery ([2]; 0.3 mg/kg): 76%
- decrease in macrophage area, brachiocephalic artery ([2]; 0.3 mg/kg): 74%
- lesion area decreased, aortic root ([2]; 0.3 mg/kg): 44%
- macrophage area decreased, aortic root ([2]; 0.3 mg/kg): 31%
- necrotic core in lesions ([2]; myriocin-treated, Western diet-fed ApoE KO mice): did not develop necrotic core
- accumulation of T cells in lesion of aortic root [3]: not affected
